The compounds below were run on Elongator complex protein 1 (ELP1, also referred to as IKBKAP) (assay: IKBKAP-HTRF assay (IKBKAP protein in lysates of FD patient-derived fibroblasts)). Details: 48 hours incubation, 7-point concentration curve.
Type: cell-based, human
Outline: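 Sandwich HTRF with two labelled anti-IKAP antibodies (overnight, 4 °C) measured IKBKAP in lysates of FD patient fibroblasts. Cells were exposed to compound for 48 h at 37 °C (7-point curve, 3.16-fold steps, triplicates). EC2x is the dose doubling IKBKAP versus DMSO control; MFI is sample ΔF divided by vehicle ΔF.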

How did the “EC2x for IKBKAP protein expression (concentration producing two times the amount of IKBKAP protein vs DMSO vehicle control)” value turn out when `Cc1c(C[C@H](C)N)sc2c(NCc3ccco3)cc(Cl)nc12` [Compound 18, 2-[(2S)-2-aminopropyl]-5-chloro-N-[(furan-2-yl)methyl]-3-methylthieno[3,2-b]pyridin-7-amine] was run?
The value was “***** (≤0.005 μM is indicated by five stars (*****))”.

And the “MFI (maximum fold increase in IKBKAP protein abundance relative to the vehicle control)” value?
The value was “***** (>4.9 is indicated by five stars (*****))”.

Which results are given for `CN[C@@H](C)c1sc2c(NCc3ccco3)cc(Cl)nc2c1C` [Compound 26, 5-chloro-N-[(furan-2-yl)methyl]-3-methyl-2-[(1S)-1-(methylamino)ethyl]thieno[3,2-b]pyridin-7-amine]?
EC2x for IKBKAP protein expression (concentration producing two times the amount of IKBKAP protein vs DMSO vehicle control): *** (between >0.02 μM and ≤0.5 μM is indicated by three stars (***)); MFI (maximum fold increase in IKBKAP protein abundance relative to the vehicle control): **** (between >3.9 and ≤4.9 is indicated by four stars (****))

How did the “EC2x for IKBKAP protein expression (concentration producing two times the amount of IKBKAP protein vs DMSO vehicle control)” value turn out when `N[C@@H](CCF)Cc1sc2c(NCc3ccco3)cc(Cl)nc2c1Cl` [Compound 93, 2-[(2S)-2-amino-4-fluorobutyl]-3,5-dichloro-N-[(furan-2-yl)methyl]thieno[3,2-b]pyridin-7-amine] was run?
The value was “***** (≤0.005 μM is indicated by five stars (*****))”.

What about the “MFI (maximum fold increase in IKBKAP protein abundance relative to the vehicle control)” value of the same compound?
The value was “***** (>4.9 is indicated by five stars (*****))”.

Which results are given for `C[C@H](N)C(=O)c1sc2c(NCc3ccco3)cc(Cl)nc2c1Br` [Compound 157, (2S)-2-amino-1-(3-bromo-5-chloro-7-{[(furan-2-yl)methyl]amino}thieno[3,2-b]pyridin-2-yl)propan-1-one]?
EC2x for IKBKAP protein expression (concentration producing two times the amount of IKBKAP protein vs DMSO vehicle control): *** (between >0.02 μM and ≤0.5 μM is indicated by three stars (***)); MFI (maximum fold increase in IKBKAP protein abundance relative to the vehicle control): **** (between >3.9 and ≤4.9 is indicated by four stars (****))

What does the source list for `Cc1c(C(C)CO)sc2c(NCc3ccco3)cc(Cl)nc12` (stereo not drawn) [Compound 146, 2-(5-chloro-7-{[(furan-2-yl)methyl]amino}-3-methylthieno[3,2-b]pyridin-2-yl)propan-1-ol]?
EC2x for IKBKAP protein expression (concentration producing two times the amount of IKBKAP protein vs DMSO vehicle control): * (An EC2x>1 μM is indicated by one star (*)); MFI (maximum fold increase in IKBKAP protein abundance relative to the vehicle control): * (An MFI≤1.9 is indicated by one star (*))

Which “EC2x for IKBKAP protein expression (concentration producing two times the amount of IKBKAP protein vs DMSO vehicle control)” value does the source give for `N[C@@H](CO)Cc1cc2nc(Cl)cc(NCc3cccs3)c2s1` [Compound 162, (2R)-2-amino-3-(5-chloro-7-{[(thiophen-2-yl)methyl]amino}thieno[3,2-b]pyridin-2-yl)propan-1-ol] here?
Its value is “***** (≤0.005 μM is indicated by five stars (*****))”.

And the “MFI (maximum fold increase in IKBKAP protein abundance relative to the vehicle control)” value?
The value was “**** (between >3.9 and ≤4.9 is indicated by four stars (****))”.

— patent publication US12384797B2, “Thioeno[3,2-b] pyridin-7-amine compounds for treating familial dysautonomia” (PTC THERAPEUTICS, INC., priority 2019, dated 2025)
